One test deals with T1, ErbB2 or EGFR.
T1 construct: enzymes purified from a baculovirus expression system
The test can be described thus: ErbB enzyme substrate phosphorylation assay (HTRF), Method B (enzyme pre-incubated with compound 1 hour). The class given is biochemical. The note with it: Table 1, enzyme Method B: enzyme mix incubated with compound 1 hour at 20° C., reaction started with substrate mix; class over ErbB2 or EGFR. The procedure, abridged:
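Baculovirus-expressed kinase (0.8 nM EGFR or 10 nM ErbB2 in enzyme mix) phosphorylated biotinylated Peptide C (0.8 µM in substrate mix) with 20 µM ATP in substrate mix, MOPS pH 7.5, MnCl2, 90 min at 20 °C. Method A started with enzyme; Method B pre-incubated enzyme with compound 1 h at 20 °C. HTRF read-out; IC50 from 12-point curve (0.00027–47.6 µM), reported as pIC50.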
Background: Time-resolved FRET reads energy transfer from a long-lived donor to a nearby acceptor.

In test [1] the test system is BT474 and HN5 tumor cell lines. Nature of the test: Methylene blue growth inhibition assay (cellular Method A). Type of test: cell-based. The settings on record: Homo sapiens, BT-474 and HN5, 72 h; Table 2, Method A methylene blue, 3 days; class over BT474 and HN5. The method, then: (§1) Human breast (BT474) and head and neck (HN5) were cultured in low glucose DMEM (Life Technologies 12320-032) containing 10% fetal bovine serum (FBS). Human colon tumor cells (Colo205) were cultured in DMEM (Invitrogen, 10564) containing 10% FBS. The SV40 transformed human mammary epithelial cell line to HB4a was transfected with either human H-ras cDNA (HB4a r4.2) or the human c-ErbB2 cDNA (HB4a c5.2). The HB4a clones were cultured in RPMI containing 10% FBS, insulin ([…]), hydrocortisone ([…]), supplemented with the selection agent hygromycin B ([…]). All lines were grown in a humidified incubator at 37° C. in 95% air, 5% CO2. Cells were harvested using trypsin/EDTA, counted using a haemocytometer, and plated in 100 microliters of the appropriate media, at the following densities, in a 96-well tissue culture plate (Falcon 3075): BT474 10,000 cells/well, HN5 3,000 cells/well. The next day, compounds were diluted in DMEM containing […] gentamicin, at twice the final required concentration, from 10 mM stock solutions in DMSO. 100 microliters/well of these dilutions were added to the 100 microliters of media currently on the cell plates. Medium containing 0.6% DMSO was added to control wells. Compounds diluted in DMEM were added to all cell lines. The final concentration of DMSO in all wells was 0.3%. Cells were returned to the incubator (37° C., […]) for 3 days. Medium was then removed by aspiration. Cell biomass was estimated by staining cells with 90 microliters per well methylene blue (Sigma M9140, 0.5% in 1:1 ethanol:water), and incubation at rt for at least 30 minutes. Stain was removed, and the plates rinsed by immersion in deionized water and air-dried. To release stain from the cells 100 microliters of solubilization solution was added (1% N-lauroyl sarcosine, Sodium salt, Sigma L5125, in PBS), and plates were shaken gently for about 30 minutes. Optical density at 620 nm was measured on a microplate reader. Percent inhibition of cell growth was calculated relative to vehicle treated control wells. Concentration of compound that inhibits 50% of control cell growth (IC50) was interpolated using nonlinear regression (Levenberg-Marquardt) and the equation, y=Vmax*(1−(x/(K+x)))+Y2, where “K” was equal to the IC50. Method B: Celltiter Glo® Growth Inhibition Assays

In test [2] the test system is Colo205 tumor cell lines. The description is as above. Type of test: cell-based. The note with it: Homo sapiens, COLO 205, 72 h, Table 3, Method A methylene blue, 3 days. How it is done:
as §1

The test system of test [3] is BT474 and HN5 tumor cell lines. Nature of the test: Celltiter Glo growth inhibition assay (cellular Method B). Type of test: cell-based. The note with it: Homo sapiens, BT-474, 72 h; Table 2, Method B Celltiter Glo, 3 days; class over BT474 and HN5. The procedure, abridged:
(§2)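 BT474, HN5 and Colo205 cells were each grown in their own 10% FBS medium, then exposed to compound for 3 days at 37 °C with 0.3% final DMSO. Growth was read by CellTiter-Glo luminescence as percent inhibition versus vehicle, and IC50 was interpolated by nonlinear regression.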

The subject of test [4] is Colo205 tumor cell lines. The description is as above. Type of test: cell-based. The note with it: Homo sapiens, COLO 205, 72 h, Table 3, Method B Celltiter Glo, 3 days. The method in brief:
as §2
(In general: In ATP-based viability assays light output follows the ATP content of the culture.)

pIC50: −log10 of the molar value. Where only a bound is given, the exact number is not on record here.

Results on 14 compounds are retold here after patent US7807673B2, “2-pyrimidinyl pyrazolopyridine ErbB kinase inhibitors” (GlaxoSmithKline LLC, priority 2005, dated 2010).

Usually pIC50 stands for −log10 of the IC50, conventionally taken in molar units. Higher therefore signals a small IC50. Regarding `O=C(Cc1cccs1)Nc1cccc(-c2nn3ccccc3c2-c2ccnc(Nc3cccc(-c4cnco4)c3)n2)c1` [Example 1, N-{3-[3-(2-{[3-(1,3-oxazol-5-yl)phenyl]amino}-4-pyrimidinyl)pyrazolo[1,5-a]pyridin-2-yl]phenyl}-2-(2-thienyl)acetamide], the “Activity (Method)” value on ErbB2 or EGFR is recorded as “+++ (B) (at least one pIC50 measurement of greater than 7 against either ErbB2 or EGFR)”. Besides, the pIC50 (in test [1]; in the test on Colo205 tumor cell lines [2]) was 6.00 to 7.00 in each case.

On to `CN(C)CCCNc1ccc(Nc2nccc(-c3c(-c4cccc(NC(=O)Cc5cccs5)c4)nn4ccccc34)n2)cc1F` [Example 2, N-[3-(3-{2-[(4-{[3-(Dimethylamino)propyl]amino}-3-fluorophenyl)amino]-4-pyrimidinyl}pyrazolo[1,5-a]pyridin-2-yl)phenyl]-2-(2-thienyl)acetamide], for which, on ErbB2 or EGFR, the “Activity (Method)” value is reported as “+++ (B) (at least one pIC50 measurement of greater than 7 against either ErbB2 or EGFR)”. The negative-log IC50 (pIC50) in test [1] is greater than 7.00; with Colo205 tumor cell lines [2] it was 6.00 to 7.00.

With `O=C(Cc1cccs1)Nc1cccc(-c2nn3ccccc3c2-c2ccnc(Nc3cccc(F)c3)n2)c1` [Example 9, N-[3-(3-{2-[(3-Fluorophenyl)amino]-4-pyrimidinyl}pyrazolo[1,5-a]pyridin-2-yl)phenyl]-2-(2-thienyl)acetamide], the “Activity (Method)” value at ErbB2 or EGFR is “+++ (B) (at least one pIC50 measurement of greater than 7 against either ErbB2 or EGFR)”. The negative-log IC50 (pIC50) (in test [1]; with Colo205 tumor cell lines [2]) was less than 6.00 in each case.

With `O=C(Cc1cccs1)Nc1cccc(-c2nn3ccccc3c2-c2ccnc(Nc3cccc(OCCN4CCCC4)c3)n2)c1` [Example 10, N-[3-(3-{2-[(3-{[2-(1-Pyrrolidinyl)ethyl]oxy}phenyl)amino]-4-pyrimidinyl}pyrazolo[1,5-a]pyridin-2-yl)phenyl]-2-(2-thienyl)acetamide], the “Activity (Method)” value on ErbB2 or EGFR is “+++ (B) (at least one pIC50 measurement of greater than 7 against either ErbB2 or EGFR)”. Also, the negative logarithm of the IC50 (pIC50) (in test [1]; with Colo205 tumor cell lines [2]) was 6.00 to 7.00 in each case.

`O=C(Cc1cccs1)Nc1cccc(-c2nn3ccccc3c2-c2ccnc(Nc3cccc(OCCCN4CCOCC4)c3)n2)c1` [Example 11, N-[3-(3-{2-[3-{[3-(4-Morpholinyl)propyl]oxy}phenylamino]-4-pyrimidinyl}pyrazolo[1,5-a]pyridin-2-yl)phenyl]-2-(2-thienyl)acetamide]: the “Activity (Method)” value at ErbB2 or EGFR is reported as “+++ (B) (at least one pIC50 measurement of greater than 7 against either ErbB2 or EGFR)”. Besides, the pIC50 (in test [1]; in the test on Colo205 tumor cell lines [2]) was 6.00 to 7.00 each time.

For `CN(C)CCCOc1cccc(Nc2nccc(-c3c(-c4cccc(NC(=O)Cc5cccs5)c4)nn4ccccc34)n2)c1` [Example 12, N-[3-(3-{2-[(3-{[3-(Dimethylamino)propyl]oxy}phenyl)-amino]-4-pyrimidinyl}pyrazolo[1,5-a]pyridin-2-yl)phenyl]-2-(2-thienyl)acetamide], at ErbB2 or EGFR, the “Activity (Method)” value is “+++ (B) (at least one pIC50 measurement of greater than 7 against either ErbB2 or EGFR)”. For the same compound, the pIC50 (in test [1]; in the test on Colo205 tumor cell lines [2]) was 6.00 to 7.00 in each case.

Consider `O=C(Cc1cccs1)Nc1cccc(-c2nn3ccccc3c2-c2ccnc(Nc3cccc(OCCCN4CCCC4)c3)n2)c1` [Example 13, N-[3-(3-{2-[(3-{[3-(1-Pyrrolidinyl)propyl]oxy}phenyl)amino]-4-pyrimidinyl}pyrazolo[1,5-a]pyridin-2-yl)phenyl]-2-(2-thienyl)acetamide], for which the “Activity (Method)” value on ErbB2 or EGFR is reported as “+++ (B) (at least one pIC50 measurement of greater than 7 against either ErbB2 or EGFR)”. In addition, the pIC50 (in test [1]; in the test with Colo205 tumor cell lines [2]) was 6.00 to 7.00 each time.

Turning to `CN1CCc2ccc(Nc3ncc(F)c(-c4c(-c5cccc(NC(=O)c6c(F)cccc6F)c5)nn5ccccc45)n3)cc2C1` [Example 51, 2,6-Difluoro-N-[3-(3-{5-fluoro-2-[(2-methyl-1,2,3,4-tetrahydro-7-isoquinolinyl)amino]-4-pyrimidinyl}pyrazolo[1,5-a]pyridin-2-yl)phenyl]benzamide], the “Activity (Method)” value on ErbB2 or EGFR was “+++ (B) (at least one pIC50 measurement of greater than 7 against either ErbB2 or EGFR)”. The pIC50 (in test [3]; in the test on Colo205 tumor cell lines [4]) was 6.00 to 7.00 in each case.

Regarding `Cc1ccc(-c2nn3ccccc3c2-c2ccnc(Nc3cccc(CN4CCCC4)c3)n2)cc1NC(=O)Cc1cccs1` [Example 56, N-{2-Methyl-5-[3-(2-{[3-(1-pyrrolidinylmethyl)phenyl]amino}-4-pyrimidinyl)pyrazolo[1,5-a]pyridin-2-yl]phenyl}-2-(2-thienyl)acetamide], the “Activity (Method)” value at ErbB2 or EGFR is “++ (B) (at least one pIC50 measurement greater than 6 against either ErbB2 or EGFR but no measurement greater than pIC50 of 7)”. The pIC50 (in test [3]; with Colo205 tumor cell lines [4]) was less than 6.00 in each case.

Consider `Cc1ccc(-c2nn3ccccc3c2-c2ccnc(Nc3cc(OCCN(C)C)ccc3C)n2)cc1NC(=O)Cc1cccs1` [Example 57, N-[5-(3-{2-[(5-{[2-(Dimethylamino)ethyl]oxy}-2-methylphenyl)amino]-4-pyrimidinyl}pyrazolo[1,5-a]pyridin-2-yl)-2-methylphenyl]-2-(2-thienyl)acetamide], for which the “Activity (Method)” value on ErbB2 or EGFR is given as “++ (B) (at least one pIC50 measurement greater than 6 against either ErbB2 or EGFR but no measurement greater than pIC50 of 7)”. Also, the pIC50 (in test [3]; with Colo205 tumor cell lines [4]) was less than 6.00 throughout.

On to `Cc1ccc(-c2nn3ccccc3c2-c2ccnc(Nc3cccc(OCCN(C)C)c3)n2)cc1NC(=O)Cc1cccs1` [Example 58, N-[5-(3-{2-[(3-{[2-(Dimethylamino)ethyl]oxy}phenyl)amino]-4-pyrimidinyl}pyrazolo[1,5-a]pyridin-2-yl)-2-methylphenyl]-2-(2-thienyl)acetamide], for which the “Activity (Method)” value on ErbB2 or EGFR is “++ (B) (at least one pIC50 measurement greater than 6 against either ErbB2 or EGFR but no measurement greater than pIC50 of 7)”. Moreover, the pIC50 (in test [3]; in the test with Colo205 tumor cell lines [4]) was 6.00 to 7.00 throughout.

Take `Cc1ccc(-c2nn3ccccc3c2-c2ccnc(Nc3ccc4c(c3)CN(C)CC4)n2)cc1NC(=O)Cc1cccs1` [Example 59, N-[2-Methyl-5-(3-{2-[(2-methyl-1,2,3,4-tetrahydro-7-isoquinolinyl)amino]-4-pyrimidinyl}pyrazolo[1,5-a]pyridin-2-yl)phenyl]-2-(2-thienyl)acetamide]: the “Activity (Method)” value on ErbB2 or EGFR is recorded as “++ (B) (at least one pIC50 measurement greater than 6 against either ErbB2 or EGFR but no measurement greater than pIC50 of 7)”. The figures for the pIC50 (in test [3]; in the test with Colo205 tumor cell lines [4]) were 6.00 to 7.00 and less than 6.00, respectively.

`O=C(Cc1cccs1)Nc1cc(-c2nn3ccccc3c2-c2ccnc(Nc3cccc(CN4CCCC4)c3)n2)ccc1F` [Example 61, N-{2-Fluoro-5-[3-(2-{[3-(1-pyrrolidinylmethyl)phenyl]amino}-4-pyrimidinyl)pyrazolo[1,5-a]pyridin-2-yl]phenyl}-2-(2-thienyl)acetamide]: the “Activity (Method)” value at ErbB2 or EGFR is listed as “++ (B) (at least one pIC50 measurement greater than 6 against either ErbB2 or EGFR but no measurement greater than pIC50 of 7)”. In addition, the pIC50 (in test [3]; with Colo205 tumor cell lines [4]) was 6.00 to 7.00 throughout.

As for `Cc1ccc(OCCN(C)C)cc1Nc1nccc(-c2c(-c3ccc(F)c(NC(=O)Cc4cccs4)c3)nn3ccccc23)n1` [Example 62, N-[5-(3-{2-[(5-{[2-(Dimethylamino)ethyl]oxy}-2-methylphenyl)amino]-4-pyrimidinyl}pyrazolo[1,5-a]pyridin-2-yl)-2-fluorophenyl]-2-(2-thienyl)acetamide], the “Activity (Method)” value on ErbB2 or EGFR is “+ (B) (no pIC50 measurement greater than 6 against either ErbB2 or EGFR)”. Moreover, the values for the pIC50 (in test [3]; with Colo205 tumor cell lines [4]) were less than 6.00 and 6.00 to 7.00, respectively.
